Tested on: acute liver damage in mice as a result of alcohol
Experiment: acute liver damage in mice as a result of alcohol, liver tissue triglyceride (FIG. 3)
Type: in vivo
Conditions: alcohol by gavage 6 g/kg body weight, XN 5 mg/kg and/or IAA 25 mg/kg body weight applied simultaneously, liver removed after 12 hours, P<0.05
Procedure: A model used was acute liver damage in mice as a result of alcohol. Alcohol was applied to the mice by gavage (6 g/kg body weight). Furthermore, xanthohumol (XN; 5 mg/kg body weight), iso-alpha-acid (IAA; 25 mg/kg body weight) and a combination of xanthohumol (5 mg/kg body weight) and iso-alpha-acid (25 mg/kg body weight) were simultaneously applied in the experimental groups. After 12 hours the animals were sacrificed, the liver tissue was removed, and the triglyceride (TG) […] therein was determined. A control group of untreated mice (no-Alc) was also tested. In the “alcohol group”, a significant increase in TG can be seen in comparison with the “non-alcohol group”.
Again, the significance level is P<0.05. CTR stands for a group of alcohol-treated mice without addition of xanthohumol, iso-alpha-acid or a combination of xanthohumol and iso-alpha-acid.

| Structure (SMILES) | triglyceride (TG) content of liver tissue versus alcohol group |
| --- | --- |
| COc1cc(O)c(CC=C(C)C)c(O)c1C(=O)/C=C/c1ccc(O)cc1 [xanthohumol] | does not differ significantly |
| CC(C)=CCC(=O)[C@@]1(O)C(O)=C(C(=O)CC(C)C)C(=O)C1CC=C(C)C (stereo partly drawn) [iso-alpha-acid] | does not differ significantly |
